Source: patent publication US20050148505A1, “Genes and agents to regulate follicular development, ovulation cycle and steriodogenesis” (priority 2003, published 2005)

Tests used:
CTBP mRNA = CTBP mRNA expression in primary granulosa cell culture by semi-quantitative RT-PCR; format: cell-based, rat; details: 6 h; for CTBP mRNA level, inhibitor alone in the absence of FSH: CHX 10 μg/ml or α-amanitin 30 μg/ml, compared to control
Experimental: FIG. 3. CTBP mRNA expression in primary granulosa cell culture. Granulosa cells were isolated from the ovaries of 24 day old immature rat primed with 17β-estradiol. The cells were cultured in the presence of 30 ng/ml FSH for up to 48 h, and RNA was extracted and amplified for CTBP using quantitative RT-PCR. In addition, L-19 mRNA was probed as an internal control. The CTBP values were normalized with the corresponding values of L-19 and two independent experimental values were averaged.
FIG. 5. Effects of cycloheximide and α-amanitin treatment on the FSH/forskolin-induced expression of CTBP mRNA. Granulosa cells were isolated from 17β-estradiol primed 24-day old immature rat ovaries and cultured with FSH (30 ng/ml) or forskolin (10 μM, FSK) in the presence or absence of cycloheximide (10 μg/ml, CHX) or α-amanitin (30 μg/ml, AMA) for the 6 h. CHX, a translation inhibitor, and AMA, a transcription inhibitor, were pretreated to the cell cultures one hour before hormone treatment. Total RNA was isolated and analyzed for CTBP and L-19 mRNA by semi-quantitative RT-PCR assay using 23 cycles for CTBP and 20 cycles for L-19. L-19 was used as an internal control. Values shown are the range of two independent experiments along with the mean, indicated by bars.
For granulosa cell culture, immature rats were daily injected sub cutaneously with 1.5 mg of 17β-estradiol at 21, 22 and 23 days of age. […] After cells were washed three times in 4F, they were plated on serum-coated, 6-well plates at a density of ˜1×10^6 cells per […] and incubated in the humidified atmosphere of 5% CO2 at 37 C. After 16 h, FSH (30 ng/ml) or forskolin (10 μM) was added to the cultures. For the inhibition of protein synthesis or transcription, cycloheximide (10 μg/ml) or α-amanitin (30 μg/ml) was added, respectively, 1 h before hormone treatment.
RT-PCR was performed as previously described (Ko et al. 1999 Endocrinology 140:5185-519411). Total RNA (1-2 μg) was reverse-transcribed at 37° C. in 20 μl using random hexamer (500 ng) and MMLV reverse transcriptase (10 units) (New England BioLabs, Boston, Mass.). Complementary DNA (cDNA) in 2 μl was added for a total 25 μl reaction mixture containing the primers (200 ng each), 0.4 mM dNTP mixture, and Taq DNA polymerase (2.5 U) in 1×PCR buffer (10 mM Tris, pH 8.3, 50 mM KCl, 1.5 mM MgCl2, 0.01% gelatin). All PCR amplifications were carried out for 20, 25, 30 cycles on a MJ research Minicycler (MJ Research, MA). PCR products were separated by 2% agarose gel electrophoresis, stained with SYBR® Green I (Molecular Probes), and visualized on a phosphoimager. The primers were 5′-ctg act ggc gag aac tgg atg-3′SEQ ID NO. 1) and 5′-aca gta tgc agg ctt cgc tcc-3′ (SEQ ID NO. 2) for 160 bp CTBP, 5′-gct ttc cct ctg ttg acc cac-3′(SEQ ID NO. 3) and 5′-aga tgt tga ggg cag ctc gat-3′(SEQ ID NO. 4) for 255 bp inhibin α, 5′-ctg aag gtc aaa ggg aat gtg-3′ (SEQ ID NO. 5) and 5′-gga cag agt ctt gat gat ctc-3′ (SEQ ID NO. 6) for 194 bp L-19 as an internal control.

granulosa cells = test: Estrogen production by granulosa cells, assayed in culture media; format: cell-based; details: for FSH-induced estrogen production: FSH pre-treated granulosa cells
Experimental: FIG. 7. Effects of T3 hormone on estrogen production. (A) Granulosa cells were treated with increasing concentrations of FSH and the culture media were assayed for estrogen production. (B) Granulosa cells that were pre-treated with FSH were treated with T3 for varying time periods, 0-4 days. The culture media were assayed for estrogen. (C) Granulosa cells were treated with none, thyroid hormone T3, FSH, or FSH and T3 combo for 3 or 5 days. The culture media were assayed for estrogen production. […] The culture media were assayed for estrogen production.

| Compound | CTBP mRNA level, inhibitor alone in the absence of FSH (CTBP mRNA) | CTBP mRNA expression, co-treatment with FSH (CTBP mRNA; α-amanitin 30 μg/ml plus FSH 30 ng/ml) | FSH-induced estrogen synthesis (granulosa cells; FSH and T3 combo for 3 or 5 days) | FSH-induced estrogen production (granulosa cells; T3 by day 4) | FSH-induced estrogen production (granulosa cells; T3 within 24 h) | hCG-dependent estrogen production (granulosa cells; hCG and T3 combo for 3 or 5 days) | FSH-dependent decrease in CTBP mRNA in the presence of inhibitor (CTBP mRNA; CHX 10 μg/ml added 1 h before FSH 30 ng/ml, compared with absence of CHX) | forskolin-induced reduction of CTBP mRNA level in the presence of inhibitor (CTBP mRNA; cycloheximide 10 μg/ml plus forskolin 10 μM) |
| --- | --- | --- | --- | --- | --- | --- | --- | --- |
| CC[C@H](C)[C@@H]1NC(=O)CNC(=O)[C@@H]2Cc3c([nH]c4cc(O)ccc34)[S+]([O-])C[C@@H](NC(=O)CNC1=O)C(=O)N[C@@H](CC(N)=O)C(=O)N1C[C@H](O)C[C@H]1C(=O)N[C@@H]([C@@H](C)[C@@H](O)CO)C(=O)N2 (stereo in doubt) [α-amanitin] | did not significantly impact the expression level | completely abolished | – | – | – | – | – | – |
| N[C@@H](Cc1cc(I)c(Oc2ccc(O)c(I)c2)c(I)c1)C(=O)O [T3] | – | – | suppresses | completely blocked | suppressed | stimulates | – | – |
| C[C@@H]1C[C@@H]([C@H](O)CC2CC(=O)NC(=O)C2)C(=O)[C@@H](C)C1 [cycloheximide] | increased the CTBP mRNA level | – | – | – | – | – | significantly less | partially prevented |
